Test results: patent US11261210B2, “Glycosylated antitumor ether lipids as novel cancer stem cell cytotoxic agents” (UNIVERSITY OF MANITOBA, priority 2012, dated 2022)

Assays:
[1] = test system: BT-474 stem cell spheroids; assay: Morphology of BT-474 stem cell spheroids under static conditions; assay type: cell-based, human; conditions: after 72 h treatment, FIG. 5A
Description: FIG. 5. A. Effect of β-O-Gln, C-Gln or ET-18-OCH3 on morphology of JIMT1 stem cell spheroids. B. Effect of β-O-Gln, α-O-Gln or ET-18-OCH3 on morphology of BT-474 stem cell spheroids. BT-474 cancer stem cells were grown for 7 days in ultra low adhesion 6 well plates. The tumorspheres formed were harvested, trypsinised and cell numbers were determined. Equal numbers of cells were dispersed into 48-well plates in mammocult medium and incubation was under static conditions. After spheres were formed, they were incubated with β-O-Gln, α-O-Gln or β-C-Gln (0, 10, or 30 μM) for 6 days. The medium was replenished after 3 days. Images in FIG. 5A were taken at day 0 and 72 h following addition of the compounds. Images in FIG. 5B were taken after 6 days of incubation with the compounds.
The effects of the GAELs, β-O-Gln, α-O-Gln or C-Gln on the growth and viability of tumorspheres growing under static conditions was also investigated. Studies were also conducted with ET-18-OCH3 as a representative of the ALP subclass and an apoptosis inducing compound. Under static conditions a large number of spheroids are formed in control incubations with the vehicle (0.1% EtOH). […] Complete disintegration is observed after incubation with GAELs for 6 days (FIG. 5B). […] Thus, while some disintegration had occurred it was not as comprehensive as those observed with the GAELs.

[2] = test system: BT-474 stem cell tumorspheres; assay: Viability of BT-474 stem cell tumorspheres (MTS assay); assay type: cell-based, human; conditions: 6 days
Description: FIG. 6. Effect of β-O-Gln, α-O-Gln, β-C-Gln and ET-18-OCH3 on the viability of BT-474 stem cell tumorspheres. BT-474 cancer stem cells were grown for 7 days in ultra low adhesion 6 well plates. The tumorspheres formed were harvested, trypsinised and cell numbers were determined. Equal numbers of cells were dispersed into 48-well plates in mammocult medium and incubation was under static conditions. Wells with only medium but no cells were treated in an identical manner to serve as blanks. After spheres were formed, β-O-Gln, α-O-Gln, β-C-Gln or ET-18-OCH3 (0, 10, 20, 30 μM) were added and incubation was for a total of 6 days. At the end of the incubation, the MTS reagent was added to each well and the plates were rotated on a Nutator mixer in a 5% CO2 incubator for 4 h. The absorbance of each well was read at 470 nm. The results are the means±standard deviation of 4 independent determinations.
Cell viability assay: Cell viability was determined by the Cell Titre 96 Aqueous One solution proliferation assay ((MTS assay; Promega) according to the instructions of the manufacturer.
The viability of the material at the end of the incubation was determined using the MTS assay. […] In cells incubated with 10 μM of β-C-Gln, 90% of the cells were not viable. […] In contrast, in experiments with ET-18-OCH3, 10 or 20 μM ET-18-OCH3 had little effect on the viability of BT-474 spheroids and at a concentration of 30 μM viability was around 45% relative to controls. The results of the integrity studies correlate well with the viability studies.
We also investigated the effect of α-O-Galn, β-O-Galn or α-O-Mann on the viability of BT-474 spheroids. The spheroids were incubated with the compounds for 6 days and the viability was assessed by the MTS assay. […] Viability was down to around 10% at 10 μM concentration of the compound. […] At a concentration of 30 μM a significant proportion (26-32%) of the BT-474 cancer stem cells were still viable. The cytotoxic efficacy of GAELs is dependent on the type of sugar moiety and the anomeric form in some instances.

SMILES: CCCCCCCCCCCCCCCCOC[C@H](CO[C@@H]1O[C@H](CO)[C@@H](O)[C@H](O)[C@H]1N)OC [β-O-Gln, 1-O-hexadecyl-2-O-methyl-3-O-(2′-amino-2′-deoxy-β-D-glucopyranosyl)-sn-glycerol]
- spheroid integrity [1]: significant disintegration
- loss of viability ([2]; 10 μM): about 60%
- loss of viability ([2]; 20 or 30 μM): total loss of viability
